TGI data for eleven compounds are collected here from PubChem BioAssay (NCI).

Test systems include MDA-MB-231 breast; UACC-62 melanoma; OVCAR-4 ovarian; ACHN renal; RXF 393 renal; LOX IMVI melanoma; SK-MEL-28 melanoma; OVCAR-3 ovarian; MCF7 breast; EKVX NSCLC; SK-OV-3 ovarian; SW-620 colon; PC-3 prostate; A498 renal; TK-10 renal; UO-31 renal; UACC-257 melanoma; HCT-116 colon; HT29 colon; U251 CNS.
Holding throughout (assay): DTP human tumour cell line panel, 48 h

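48-hour exposure; five concentrations; linearly interpolated endpoints. TGI: total growth inhibition.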 Where only a bound is given, the exact number is not on record here.

A word on the TGI: it is the concentration giving total growth inhibition. Higher therefore signals lower sensitivity of the cells. For `C=C(CCC/C(C)=C/C=C/[C@H](C)CCCc1ccoc1)C[C@@H]1OC(=O)[C@H](C)[C@@H]1O`, the TGI with MDA-MB-231 breast stood at 19.4 µM; in the assay on UACC-62 melanoma, 16.6 µM; in the assay with OVCAR-4 ovarian, 13.1 µM; with ACHN renal, 18.4 µM; with RXF 393 renal, 14.2 µM; with LOX IMVI melanoma, 31.6 µM. Further, the TGI worked out at 15.6 µM with SK-MEL-28 melanoma; 17.6 µM in the assay on OVCAR-3 ovarian; 33.9 µM with MCF7 breast; 21 µM in the assay on EKVX NSCLC; 16.8 µM in the assay on SK-OV-3 ovarian; 26.7 µM in the assay with SW-620 colon. Also, the total growth inhibition concentration (TGI) in the assay on PC-3 prostate turned out to be 17.2 µM; with A498 renal, 17.2 µM; in the assay with TK-10 renal it was 22.2 µM; with UO-31 renal, 15.6 µM; with UACC-257 melanoma, 16.4 µM; in the assay with HCT-116 colon, 42.4 µM. Besides, the results for the total growth inhibition concentration (TGI) with HT29 colon and with U251 CNS were 50 µM and 24.3 µM, respectively.

`O=C(/C=C/c1ccc(O)c(O)c1)NC(COC(=O)/C=C/c1ccc(O)c(O)c1)C(=O)O` (stereo not given): the TGI with MDA-MB-231 breast, with UACC-62 melanoma, with OVCAR-4 ovarian, in the assay on ACHN renal, in the assay on RXF 393 renal and in the assay on LOX IMVI melanoma was over 100 µM each time. Moreover, the total growth inhibition concentration (TGI) in the assay with SK-MEL-28 melanoma, in the assay with OVCAR-3 ovarian, with MCF7 breast, with EKVX NSCLC, in the assay with SK-OV-3 ovarian and in the assay with SW-620 colon was over 100 µM throughout. Further, the total growth inhibition concentration (TGI) with PC-3 prostate, in the assay on A498 renal, in the assay on TK-10 renal, in the assay with UO-31 renal, in the assay with UACC-257 melanoma and with HCT-116 colon was over 100 µM each time. The TGI in the assay on HT29 colon and in the assay with U251 CNS was over 100 µM each time.

Take `N#CCC1C2CC3C(C2=O)C13` (stereo not given): the TGI in the assay with MDA-MB-231 breast, with UACC-62 melanoma, in the assay with OVCAR-4 ovarian, in the assay on ACHN renal, in the assay on RXF 393 renal and in the assay with LOX IMVI melanoma was over 100 µM in each case. In addition, the total growth inhibition concentration (TGI) with SK-MEL-28 melanoma, with OVCAR-3 ovarian, in the assay on MCF7 breast, in the assay on EKVX NSCLC, in the assay with SK-OV-3 ovarian and with SW-620 colon was over 100 µM each time. Moreover, the TGI in the assay with PC-3 prostate, in the assay with A498 renal, in the assay with TK-10 renal, in the assay on UO-31 renal, with UACC-257 melanoma and with HCT-116 colon was over 100 µM throughout. Also, the TGI in the assay with HT29 colon and with U251 CNS was over 100 µM throughout.

On to `CCCCCCCC(CC(=O)NC(CO)C(=O)NC(CO)CC(C)C)OC(=O)CC(CCCCCCC)OC(=O)CC(CCCCCCC)OC1OC(C)C(O)C(OC2OC(C)C(O)C(O)C2O)C1O` (stereo not given), for which the TGI in the assay on MDA-MB-231 breast turned out to be 26.6 µM; in the assay on UACC-62 melanoma, 27.9 µM; with OVCAR-4 ovarian, 28 µM; in the assay on ACHN renal, 25.5 µM; in the assay with RXF 393 renal it was 31.2 µM; in the assay with LOX IMVI melanoma it was 17.7 µM. Also, the TGI in the assay with SK-MEL-28 melanoma is 21.2 µM; with OVCAR-3 ovarian, 26.9 µM; with MCF7 breast, over 52.3 µM; in the assay with EKVX NSCLC, 41.8 µM; with SK-OV-3 ovarian, 31.5 µM; in the assay with SW-620 colon, 33.4 µM. Besides, the TGI worked out at 25.3 µM in the assay with PC-3 prostate; 35 µM in the assay with A498 renal; 30.8 µM with TK-10 renal; 30.5 µM in the assay with UO-31 renal; 26.6 µM in the assay on UACC-257 melanoma; 20.8 µM with HCT-116 colon. Further, the TGI with HT29 colon amounted to 21.8 µM; in the assay on U251 CNS it was 24.7 µM.

`S=C(Nc1ccc2c(c1)oc1ccccc12)c1cccs1`: the concentration for total growth inhibition (TGI) in the assay with MDA-MB-231 breast, in the assay with UACC-62 melanoma, with OVCAR-4 ovarian, in the assay with ACHN renal, in the assay on RXF 393 renal and with LOX IMVI melanoma was over 100 µM each time. The TGI in the assay on SK-MEL-28 melanoma, in the assay on OVCAR-3 ovarian, in the assay on MCF7 breast, in the assay on EKVX NSCLC, with SK-OV-3 ovarian and in the assay with SW-620 colon was over 100 µM in each case. Also, the concentration for total growth inhibition (TGI) with PC-3 prostate, in the assay with A498 renal, with TK-10 renal, with UO-31 renal, in the assay on UACC-257 melanoma and with HCT-116 colon was over 100 µM each time. Besides, the TGI with HT29 colon and in the assay with U251 CNS was over 100 µM each time.

Regarding `Cc1c(-c2nc(N)c(C#N)c(N)c2C#N)c(=O)oc2ccccc12`, the TGI in the assay on MDA-MB-231 breast, in the assay with UACC-62 melanoma, with OVCAR-4 ovarian, with ACHN renal, in the assay on RXF 393 renal and in the assay with LOX IMVI melanoma was over 100 µM in each case. The TGI with SK-MEL-28 melanoma, in the assay on OVCAR-3 ovarian, in the assay on MCF7 breast, in the assay on EKVX NSCLC, in the assay on SK-OV-3 ovarian and with SW-620 colon was over 100 µM in each case. Further, the TGI with PC-3 prostate, in the assay with A498 renal, in the assay with TK-10 renal, with UO-31 renal, in the assay on UACC-257 melanoma and in the assay on HCT-116 colon was over 100 µM each time. The TGI in the assay with HT29 colon and with U251 CNS was over 100 µM each time.

For `Cc1cc(C)c(S(=O)(=O)N(CCCN)OCCON(CCCN)S(=O)(=O)c2c(C)cc(C)cc2C)c(C)c1`, the TGI was over 23.4 µM with MDA-MB-231 breast; 21.2 µM in the assay with UACC-62 melanoma; 10.3 µM in the assay with OVCAR-4 ovarian; 66.1 µM in the assay with ACHN renal; over 100 µM with RXF 393 renal; over 100 µM with LOX IMVI melanoma. For the same compound, the TGI in the assay on SK-MEL-28 melanoma was 31 µM; in the assay on OVCAR-3 ovarian, 3.93 µM; in the assay on MCF7 breast, over 100 µM; in the assay with EKVX NSCLC, 20.6 µM; with SK-OV-3 ovarian, 24.8 µM; in the assay with SW-620 colon, over 100 µM. The TGI in the assay with PC-3 prostate was 4.02 µM; in the assay with A498 renal, 53.9 µM; in the assay on TK-10 renal, 42.8 µM; in the assay with UO-31 renal, 58.7 µM; with UACC-257 melanoma, 36.5 µM; in the assay with HCT-116 colon, 5.1 µM. Also, the total growth inhibition concentration (TGI) in the assay with HT29 colon was 40.4 µM; with U251 CNS, over 100 µM.

For `CC[C@@H]1CC[C@@H]2[C@H](CC[C@]3(C)[C@@H](OC(C)=O)CC[C@@H]23)[C@H]1C(=O)OC`, the TGI in the assay with MDA-MB-231 breast is 46 µM; in the assay with UACC-62 melanoma, 49.4 µM; with OVCAR-4 ovarian it was 52.8 µM; in the assay with ACHN renal, over 100 µM; in the assay with RXF 393 renal, 49.8 µM; with LOX IMVI melanoma, 35.6 µM. Also, the TGI with SK-MEL-28 melanoma was over 100 µM; with OVCAR-3 ovarian it was 34.4 µM; in the assay on MCF7 breast, 60.3 µM; in the assay with EKVX NSCLC it was 58.6 µM; with SK-OV-3 ovarian, over 100 µM; in the assay on SW-620 colon, 48.8 µM. Further, the TGI in the assay with PC-3 prostate was 67.3 µM; in the assay with A498 renal, over 100 µM; with TK-10 renal it was over 100 µM; in the assay on UO-31 renal, over 100 µM; in the assay with UACC-257 melanoma, 54.3 µM; in the assay on HCT-116 colon, 33.7 µM. Also, the TGI worked out at 67.2 µM in the assay with HT29 colon and 43.3 µM in the assay on U251 CNS.

Consider `C(=N\NC1=NCCN1)/c1cccc2cc3ccncc3nc12`, for which the concentration for total growth inhibition (TGI) with MDA-MB-231 breast came to 6.13 µM; in the assay on UACC-62 melanoma, 31.4 µM; in the assay with OVCAR-4 ovarian, 12.3 µM; in the assay with ACHN renal it was 13.6 µM; in the assay with RXF 393 renal it was 13.2 µM; with LOX IMVI melanoma, 3.39 µM. In addition, the TGI is 22.8 µM with SK-MEL-28 melanoma; 17.1 µM in the assay with OVCAR-3 ovarian; 14.5 µM with MCF7 breast; 14.9 µM with EKVX NSCLC; 23.5 µM with SK-OV-3 ovarian; 6.91 µM with SW-620 colon. The TGI was determined as 13.7 µM in the assay with PC-3 prostate; 23.9 µM in the assay on A498 renal; 22.2 µM with TK-10 renal; 14.2 µM with UO-31 renal; 24.6 µM in the assay with UACC-257 melanoma; 3.19 µM in the assay on HCT-116 colon. The TGI with HT29 colon was found to be 10.5 µM; with U251 CNS, 4 µM.

As for `Cn1nc(-c2ccccc2)c2c(-c3ccccc3)c3cc(Cl)ccc3nc21`, the concentration for total growth inhibition (TGI) in the assay on MDA-MB-231 breast, in the assay on UACC-62 melanoma, in the assay with OVCAR-4 ovarian, in the assay with ACHN renal, in the assay with RXF 393 renal and with LOX IMVI melanoma was over 100 µM throughout. Further, the TGI with SK-MEL-28 melanoma, in the assay on OVCAR-3 ovarian, with MCF7 breast, in the assay with EKVX NSCLC, in the assay on SK-OV-3 ovarian and in the assay on SW-620 colon was over 100 µM each time. In addition, the total growth inhibition concentration (TGI) in the assay on PC-3 prostate, in the assay with A498 renal, in the assay on TK-10 renal, in the assay with UO-31 renal, with UACC-257 melanoma and in the assay on HCT-116 colon was over 100 µM throughout. Besides, the TGI with HT29 colon and with U251 CNS was over 100 µM each time.

For the compound `c1ccc2cc(CNCCCCNCCCNCc3ccc4ccccc4c3)ccc2c1`, the concentration for total growth inhibition (TGI) with MDA-MB-231 breast is 3.95 µM; in the assay with UACC-62 melanoma, 3.52 µM; in the assay with OVCAR-4 ovarian, 3.08 µM; with ACHN renal, 2.92 µM; with RXF 393 renal it was 3.16 µM; in the assay on LOX IMVI melanoma, 0.358 µM. In addition, the total growth inhibition concentration (TGI) stood at 3.34 µM with SK-MEL-28 melanoma; 3.52 µM in the assay on OVCAR-3 ovarian; 3.06 µM with MCF7 breast; 3.05 µM in the assay with EKVX NSCLC; 3.48 µM in the assay with SK-OV-3 ovarian; 0.915 µM in the assay with SW-620 colon. Moreover, the concentration for total growth inhibition (TGI) is 3.3 µM in the assay on PC-3 prostate; 4.42 µM with A498 renal; 3.39 µM with TK-10 renal; 2.83 µM in the assay with UO-31 renal; 3.55 µM in the assay on UACC-257 melanoma; 0.318 µM with HCT-116 colon. Besides, the total growth inhibition concentration (TGI) in the assay on HT29 colon came out at 0.538 µM; with U251 CNS it was 1.25 µM.
